Source: patent publication EP0734206B1, “SURFACTANTS PROVIDING ENHANCED EFFICACY AND/OR RAINFASTNESS TO PESTICIDE FORMULATIONS” (MONSANTO COMPANY, priority 1993, dated 1995)

Key:
[1] = test system: Panicum maximum (guineagrass, PANMA); experiment: greenhouse test of rainfastness of glyphosate formulations (Example 4); type: in vivo; settings: 1.68 kg a.e./ha, formulation 18.4% glyphosate a.e., 7% cocoamine quat 2EO, 10.2% nonionic surfactant
Experimental: (§1) Comparative herbicidal activity with and without simulated rain was determined in greenhouse and field tests. For greenhouse tests, seeds or propagules of selected species were planted in 10.2 cm square pots of soil with added fertilizer. Temperature and relative humidity were allowed to fluctuate within limits defined for each test described in the following Examples. Plants were allowed to grow until the desired growth stage or size (defined for each test) for spraying. Pots were selected for uniformity before treatment and three replicate pots were assigned to each treatment. Spray solutions were prepared by dilution or dissolution of concentrate herbicide formulations in water. When desired to test "tank mix" application of surfactant compositions, these were added to the spray solution at the required concentration. Spraying was performed with a device which simulates agricultural field spraying equipment, delivering a fine spray at a pressure of about 207 kilopascals. Speed of travel of the spray device over the plants was adjusted to give the desired spray volume (defined for each test). For logistical reasons, all three replicates of each treatment were sprayed together. "Rain" treatments were applied by repeated passage of a coarse spray of water over the plants at some desired period of time after herbicide spraying. The amount and duration of "rain" were noted. After spraying and "rain" treatment, the plants were returned to the greenhouse. Herbicidal efficacy was evaluated by visual assessment at one or more selected time periods after treatment and recorded as "percent control" on an arbitrary scale by comparison with untreated plants. On this scale 0 means no visible effect and 100 means death of all plants. In the Examples, percent control values given are the means of three replicates.
Aqueous concentrate formulations of the isopropylamine salt of glyphosate were prepared at a glyphosate a.e. loading of 18.4% (equivalent to about 200 g a.e./liter). All contained 7% cocoamine quat 2EO and 10.2% nonionic surfactant. Formulations of the present invention contained as the nonionic one of several secondary alcohol ethoxylates; other formulations were made containing nonionics such as Silwet L-77, 2,4,7,9-tetramethyl-5-decyne-4,7-diol 10EO, nonylphenol 8EO, 10EO and 12EO and C12-15 primary alcohol 7EO, 9EO and 12EO. These formulations were tested for rainfastness in a greenhouse test.
The test species was Panicum maximum (guineagrass, PANMA). All glyphosate formulations were applied at 1.68 kg a.e./ha (1.5 lb a.e./acre) in a spray volume of 185 l/ha (20 gallons/acre). Commercial Roundup herbicide was included as a standard. Simulated rain was applied in the amount of 6 mm over a period of 15 minutes, beginning 1 hour after glyphosate treatment.

[2] = cloud point of aqueous concentrate glyphosate formulations (Examples 2 and 3); type: physicochemical; settings: 31% glyphosate a.e. as isopropylamine salt
Experimental: Aqueous concentrate formulations of the isopropylamine salt of glyphosate were prepared at a glyphosate a.e. loading of 31% (equivalent to about 360 g a.e./liter). All contained 3.5% cocoamine quat 2EO. Secondary alcohol ethoxylates of the invention were included at a range of levels and cloud point of the formulation was determined. To measure cloud point, a sample of each formulation in a test tube was heated in a water bath until it became cloudy. The test tube was then removed from the water bath and the sample stirred with a thermometer until it became clear. The temperature at which the sample became clear was recorded as the cloud point of the formulation.
Aqueous concentrate formulations of the isopropylamine salt of glyphosate were prepared at the same glyphosate a.e. loading as in Example 2, but containing higher levels of cocoamine quat 2EO. Secondary alcohol ethoxylates of the invention were included at a range of levels and cloud point of the formulation was determined by the same procedure as in Example 2.

[3] = test system: Elymus repens (quackgrass, AGRRE); experiment: greenhouse test of rainfastness of glyphosate formulations (Example 5); type: in vivo; settings: formulation 31% glyphosate a.e., 7.5% cocoamine quat 2EO, 8.6% nonionic surfactant
Experimental: as §1
Aqueous concentrate formulations of the isopropylamine salt of glyphosate were prepared at a glyphosate a.e. loading of 31% (equivalent to about 360 g a.e./liter). All contained 7.5% cocoamine quat 2EO and 8.6% nonionic surfactant. Formulations of the present invention contained as the nonionic C11-15 secondary alcohol 9EO or C12 branched secondary alcohol 10EO; for comparison, other formulations were made containing nonionics disclosed as rainfastness aids in the prior art such as 2,4,7,9-tetramethyl-5-decyne-4,7-diol 10EO or nonylphenol 8EO. These formulations were tested for rainfastness in a greenhouse test.
The test species was Elymus repens (quackgrass, AGRRE). All glyphosate formulations were applied at both 0.84 and 1.68 kg a.e./ha (0.75 and 1.5 lb a.e./acre) in a spray volume of 20 gallons/acre (187 l/ha. Commercial Roundup herbicide was included as a standard. Simulated rain was applied in the amount of 6 mm over a period of 15 minutes, beginning 1 hour after glyphosate treatment. Data on percent inhibition without and with "rain" are presented in Table 6. Table 6

barley cv. Pennco = experiment: short-term whole plant assay, barley regrowth after glyphosate treatment and trimming (Examples 7-8); type: in vivo; settings: T/Am 5 0, S/Al 9 0 % w/v, 7 days after treatment
Excerpt: In Examples 7 and 8, a short-term whole plant assay was used to evaluate relative efficacy of aqueous glyphosate compositions containing tallowamine 5EO and C11-15 secondary alcohol 9EO in different concentrations and proportions relative to one another.
Equal volumes of uniformly sized seeds (20-25 in number) of barley cv. Pennco were sown in a growing medium consisting of a 3:2:1 sand/soil/peat mixture in 4 inch square plastic pots. Pots were placed in a controlled environment growth chamber providing a 14 hour photoperiod, day and night temperatures of 78°F and 66°F respectively, and a relative humidity in the range from 30% to 50%. Light was provided by a combination of metal halide and sodium vapor lamps. All pots were bottom watered at 1200 hr on the first day, resulting in rapid saturation of the growing medium. Seedling emergence occurred on the third and fourth days. On the seventh day, all pots were fertilized by bottom watering with a Peters 20-20-20 fertilizer containing 475 ppm soluble nitrogen.
On the eighth day, pots were sorted into 6 replicate blocks according to plant size. Treatments, including no-treatment controls, were randomly assigned within each block, one treatment per pot.
Plants were treated with glyphosate compositions in rapid succession between 0830 hr and 0900 hr on the ninth day, when average plant height was 13-15 cm and the second leaf was just beginning to elongate. Compositions were applied using a calibrated single-nozzle track sprayer delivering 187 l/ha through a Teejet 8001E nozzle at 276 kilopascals. Plants were removed from the growth chamber immediately before treatment and returned to the same growth chamber immediately after treatment. Pots were spatially arranged in a randomized complete block experimental design. At 6 hours after treatment plants in all pots were trimmed by cutting to 20 mm above the top edge of the pot. This removed approximately 90% of the barley leaf area. Pots were bottom watered once daily for the remainder of the study. Data collection took place on the sixteenth day, 7 days after treatment.
Average height of barley regrowth in each pot was measured to the nearest 5 mm increment, from the earlier cutting height 20 mm above the edge of the pot. All plants in each pot were then cut at 20 mm above the edge of the pot and total fresh weight was recorded.
All compositions in this Example contained glyphosate as the isopropylamine salt at a concentration calculated to deliver 0.42 kg a.e./ha. Polyoxyethylene tallowamine 5EO (T/Am 5) concentration was varied independently of C11-15 secondary alcohol 9EO (S/Al 9) concentration as will be clear from the tables below. […]

[4] = Rain 6 mm over 15 minutes, 1 hour after treatment
[5] = 4% secondary alcohol, 3.5% cocoamine quat 2EO
[6] = 5% secondary alcohol, 3.5% cocoamine quat 2EO
[7] = 5% secondary alcohol, 5% cocoamine quat 2EO
[8] = 6% secondary alcohol, 3.5% cocoamine quat 2EO
[9] = 6% secondary alcohol, 5% cocoamine quat 2EO
[10] = 7% secondary alcohol, 3.5% cocoamine quat 2EO
[11] = 7% secondary alcohol, 5% cocoamine quat 2EO
[12] = 8% secondary alcohol, 5% cocoamine quat 2EO
[13] = 0.84 kg a.e./ha, Rain 6 mm over 15 minutes, 1 hour after treatment
[14] = 1.68 kg a.e./ha, Rain 6 mm over 15 minutes, 1 hour after treatment
[15] = averaged over glyphosate 0.07, 0.14 and 0.28 kg a.e./ha

Compound: nonylphenol 10EO
- Percent inhibition of guineagrass 15 DAT ([1]; No rain): 100%
- Percent inhibition of guineagrass 15 DAT [1, 4]: 81%

Compound: C12 branched secondary alcohol 6EO [C12 branched 6EO]
- Cloud points [2, 5]: >95 °C
- Cloud points [2, 6]: >95 °C
- Cloud points [2, 7]: >95 °C
- Cloud points [2, 8]: <25 °C
- Cloud points [2, 9]: <25 °C
- Cloud points [2, 10]: <25 °C
- Cloud points [2, 11]: <25 °C
- Cloud points [2, 12]: <25 °C
- Percent inhibition of guineagrass 15 DAT ([1]; No rain): 100%
- Percent inhibition of guineagrass 15 DAT [1, 4]: 66%

Compound: C12 branched secondary alcohol 10EO [C12 branched 10EO]
- Cloud points [2, 5]: >95 °C
- Cloud points [2, 6]: 80 °C
- Cloud points [2, 7]: 80 °C
- Cloud points [2, 8]: 72 °C
- Cloud points [2, 9]: 68 °C
- Cloud points [2, 10]: 65 °C
- Cloud points [2, 11]: 65 °C
- Cloud points [2, 12]: 61 °C
- Percent inhibition of quackgrass 28 DAT ([3]; 0.84 kg a.e./ha, No rain): 94%
- Percent inhibition of quackgrass 28 DAT [3, 13]: 84%
- Percent inhibition of quackgrass 28 DAT ([3]; 1.68 kg a.e./ha, No rain): 100%
- Percent inhibition of quackgrass 28 DAT [3, 14]: 88%
- Percent inhibition of guineagrass 15 DAT ([1]; No rain): 100%
- Percent inhibition of guineagrass 15 DAT [1, 4]: 98%

Compound: nonylphenol 8EO
- Percent inhibition of quackgrass 28 DAT ([3]; 0.84 kg a.e./ha, No rain): 97%
- Percent inhibition of quackgrass 28 DAT [3, 13]: 83%
- Percent inhibition of quackgrass 28 DAT ([3]; 1.68 kg a.e./ha, No rain): 98%
- Percent inhibition of quackgrass 28 DAT [3, 14]: 79%
- Percent inhibition of guineagrass 15 DAT ([1]; No rain): 100%
- Percent inhibition of guineagrass 15 DAT [1, 4]: 97%

Compound: O=C(O)CNCP(=O)(O)O [glyphosate, N-phosphonomethylglycine]
- Mean fresh weight of regrowth (barley cv. Pennco; [15]): 2.83 g
- Mean height of regrowth (barley cv. Pennco; [15]): 171 mm
- Mean fresh weight of regrowth (barley cv. Pennco; glyphosate 0.42 kg a.e./ha): 1.92 g
- Mean height of regrowth (barley cv. Pennco; glyphosate 0.42 kg a.e./ha): 148 mm

Compound: nonylphenol 12EO
- Percent inhibition of guineagrass 15 DAT ([1]; No rain): 100%
- Percent inhibition of guineagrass 15 DAT [1, 4]: 63%

Compound: 2,4,7,9-tetramethyl-5-decyne-4,7-diol 10EO [Adjuvant 2]
- Percent inhibition of quackgrass 28 DAT ([3]; 0.84 kg a.e./ha, No rain): 94%
- Percent inhibition of quackgrass 28 DAT [3, 13]: 78%
- Percent inhibition of quackgrass 28 DAT ([3]; 1.68 kg a.e./ha, No rain): 98%
- Percent inhibition of quackgrass 28 DAT [3, 14]: 94%
- Percent inhibition of guineagrass 15 DAT ([1]; No rain): 98%
- Percent inhibition of guineagrass 15 DAT [1, 4]: 94%
